In patent US20230381321A1, “CAMPTOTHECIN CONJUGATES” (priority 2022, published 2023) one finds IC50 data, which are given here for eleven compounds.

A word on the IC50: it is the midpoint of a concentration-inhibition curve.

SMILES strings stand for the structures. Read-outs that look alike come from different tables or passages of the source.

Format in all cases: cell-based
Assay [1] relates to breast cancer cells (MDA-MB-231). Description: In vitro potency (CellTiter-Glo, 96 h) on MDA-MB-231. To be noted: Homo sapiens, MDA-MB-231, 96 h, read-out: MDAMB 231 IC50. Put shortly:
(§1)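 Steps: plate log-phase cells in RPMI 1640/20% FBS; after 24 h add […] serial dilutions; incubate 4 days; measure luminescence to derive growth inhibition. All lines were STR-profiled and cultured no longer than 2 months.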
A general note: Cellular ATP, detected with luciferase, serves as a proxy for viable cell number.

The test system of assay [2] is Hodgkin's lymphoma cells (L540cy). Description: In vitro potency (CellTiter-Glo, 96 h) on L540cy. To be noted: L540cy, 96 h, read-out: L540cy IC50. An outline of the steps: as §1
For assay [3], the system named is acute myeloid leukemia cells (MOLM-13). The assay is described as follows: In vitro potency (CellTiter-Glo, 96 h) on MOLM-13. The conditions noted are these: Homo sapiens, MOLM-13, 96 h, read-out: MOLM-13 IC50. Put shortly: as §1
The test system of assay [4] is B-lymphocyte cancer cells (SU-DHL4). The assay is described as follows: In vitro potency (CellTiter-Glo, 96 h) on SU-DHL4. The conditions noted are these: Homo sapiens, SU-DHL-4, 96 h, read-out: SU-DHL-4 IC50. An outline of the steps: as §1
For assay [5], the system named is anaplastic large cell lymphoma cells (DELBVR). Description: In vitro potency (CellTiter-Glo, 96 h) on DELBVR. To be noted: 96 h, read-out: DELBVR IC50. Put shortly:
as §1

The subject of assay [6] is non-small-cell lung cancer cells (Calu1). Description: In vitro potency (CellTiter-Glo, 96 h) on Calu1. To be noted: Homo sapiens, Calu-1, 96 h, read-out: Calu1 IC50. The protocol:
(§2) In vitro potency was assessed on multiple cancer cell lines. All cell lines were authenticated by STR profiling at IDEXX Bioresearch and cultured for no more than 2 months after resuscitation. Cells cultured in log-phase growth were seeded for 24 hours in 96-well plates containing […] RPMI 1640 supplemented with 20% FBS. Serial dilutions of antibody-drug conjugates in cell culture media were prepared at 4x working concentrations, and 50 μL of each dilution was added to the 96-well plates. Following addition of test articles, cells were incubated with test articles for 4 days at […]. After 96 hours, growth inhibition was assessed by CellTiterGlo® (Promega, Madison, WI) and luminescence was measured on a plate reader.
(§3) Cell viability was determined by CellTiter-Glo staining after 96h exposure to ADC. ND=Not Determined. In the following tables, “Ex_” refers to a drug linker number. For example, “Ag4-Ex_4a” refers to a conjugate of an Ag4 antibody with drug linker 4a.

A further assay deals with melanoma cells (A2058). The assay is described as follows: In vitro potency (CellTiter-Glo, 96 h) on A2058. To be noted: Homo sapiens, A2058, 96 h, read-out: A2058 IC50. The protocol:
as §2, §3

Assay [7] concerns anaplastic large cell lymphoma cells (DEL). Description: In vitro potency (CellTiter-Glo, 96 h) on DEL. To be noted: 96 h, read-out: DEL IC50. Put shortly:
as §1

In assay [8] the test system is renal carcinoma cells (786-O). The assay is described as follows: In vitro potency (CellTiter-Glo, 96 h) on 786-O. To be noted: Homo sapiens, 786-0, 96 h, read-out: 786-O IC50. An outline of the steps: as §1
Assay [9] deals with anaplastic large cell lymphoma cells (Karpas299). The assay is described as follows: In vitro potency (CellTiter-Glo, 96 h) on Karpas299. The conditions noted are these: Homo sapiens, KARPAS-299, 96 h, read-out: Karpas299 IC50. Put shortly: as §1
Assay [10] can be described thus: In vitro potency (CellTiter-Glo, 96 h) on Ls174T. The conditions noted are these: Homo sapiens, LS174T, read-out: Ls174T IC50. Put shortly: as §1
For assay [11], the system named is pancreatic cancer cells (BxPC3). Description: In vitro potency (CellTiter-Glo, 96 h) on BxPC3. The conditions noted are these: Homo sapiens, BXPC-3, 96 h, read-out: BxPC3 IC50. An outline of the steps:
as §1

Setting [12] is: CPT free drugs, CellTiter-Glo after 96 h exposure.

Take `CC[C@@]1(O)C(=O)OCc2c1cc1n(c2=O)Cc2c-1nc1cc3c(cc1c2CN)CCO3` [Compound 2n, (5S)-14-(aminomethyl)-5-ethyl-5-hydroxy-7,20-dioxa-11,24-diazahexacyclo[11.11.0.02,11.04,9.015,23.017,21]tetracosa-1(24),2,4(9),13,15(23),16,21-heptaene-6,10-dione;2,2,2-trifluoroacetic acid]: the IC50 turned out to be 8 nM in assay [1]; 2 nM in assay [2]; 29 nM in assay [3]; 1 nM in [4]; 1 nM in assay [5]; 18 nM in assay [6]. Besides, the IC50 in the assay on melanoma cells (A2058) was found to be 3 nM; in assay [7], 1 nM; in assay [8] it was 5 nM; in assay [9], 5 nM; in assay [10] (96 h), 4 nM; in assay [11], 3 nM.

Turning to `C/C=C(\C)c1c(C)c(F)cc2nc3c(c(CN)c12)Cn1c-3cc2c(c1=O)COC(=O)[C@]2(O)CC` [Compound 6a], the IC50 in assay [1] (setting [12]) was 7 nM; in assay [2] (setting [12]), 4 nM; in assay [3] (setting [12]), 4 nM; in assay [4] (setting [12]), 2 nM; in [5] (setting [12]) it was 3 nM; in assay [6] (setting [12]), 21 nM. The IC50 in the assay on melanoma cells (A2058) (setting [12]) was determined as 5 nM; in [7] (setting [12]), 2 nM; in assay [8] (setting [12]), 6 nM; in [9] (setting [12]) it was 5 nM; in assay [10] (setting [12]), 12 nM; in [11] (setting [12]) it was 8 nM.

In the case of `CC[C@@]1(O)C(=O)OCc2c1cc1n(c2=O)Cc2c-1nc1ccc3c(c1c2CN)SCC3` [Compound 2av], the IC50 in assay [1] (setting [12]) was determined as 9 nM; in assay [2] (setting [12]) it was 5 nM; in assay [3] (setting [12]), 236 nM; in assay [4] (setting [12]) it was 8 nM; in [5] (setting [12]), 4 nM; in assay [6] (setting [12]) it was 25 nM. Further, the IC50 in the assay on melanoma cells (A2058) (setting [12]) turned out to be 4 nM; in assay [7] (setting [12]), 5 nM; in assay [8] (setting [12]), 22 nM; in assay [9] (setting [12]) it was 26 nM; in [10] (setting [12]) it was 11 nM; in assay [11] (setting [12]) it was 34 nM.

On to `CC[C@@]1(O)C(=O)OCc2c1cc1n(c2=O)Cc2c-1nc1cc3c(c(F)c1c2CN)CCC3` [Compound 5b], for which the IC50 is 36 nM in [1] (setting [12]); 10 nM in assay [2] (setting [12]); over 1000 nM in assay [3] (setting [12]); 27 nM in assay [4] (setting [12]); 15 nM in assay [5] (setting [12]); 54 nM in assay [6] (setting [12]). For the same compound, the IC50 came out at 17 nM in the assay with melanoma cells (A2058) (setting [12]); 17 nM in assay [7] (setting [12]); 69 nM in [8] (setting [12]); 46 nM in [9] (setting [12]); 45 nM in assay [10] (setting [12]); 128 nM in assay [11] (setting [12]).

Regarding `CC[C@@]1(O)C(=O)OCc2c1cc1n(c2=O)Cc2c-1nc1cc3c(cc1c2CN)CCS3` [Compound 2ar], the IC50 in [1] (setting [12]) is 14 nM; in assay [2] (setting [12]), 4 nM; in [3] (setting [12]), 258 nM; in assay [4] (setting [12]) it was 13 nM; in assay [5] (setting [12]), 5 nM; in assay [6] (setting [12]) it was 26 nM. Besides, the IC50 with melanoma cells (A2058) (setting [12]) worked out at 7 nM; in assay [7] (setting [12]), 7 nM; in assay [8] (setting [12]) it was 26 nM; in assay [9] (setting [12]), 29 nM; in [10] (setting [12]), 14 nM; in assay [11] (setting [12]), 43 nM.

Consider `CC[C@@]1(O)C(=O)OCc2c1cc1n(c2=O)Cc2c-1nc1cc(F)c3c(c1c2CN)CCC3` [Compound 2as], for which the IC50 in [1] (setting [12]) amounted to 1 nM; in [2] (setting [12]), 1 nM; in assay [3] (setting [12]), 51 nM; in [4] (setting [12]), 2 nM; in assay [5] (setting [12]) it was 1 nM; in assay [6] (setting [12]), 4 nM. Further, the 50% inhibitory concentration (IC50) came out at 3 nM in the assay with melanoma cells (A2058) (setting [12]); 1 nM in [7] (setting [12]); 3 nM in assay [8] (setting [12]); 3 nM in assay [9] (setting [12]); 2 nM in [10] (setting [12]); 5 nM in [11] (setting [12]).

`CC[C@@]1(O)C(=O)OCc2c1cc1n(c2=O)Cc2c-1nc1cc(F)c(C)c(C3=CCOCC3)c1c2CN` [Compound 6h]: the IC50 in assay [1] (setting [12]) is 102 nM; in [2] (setting [12]), 19 nM; in assay [3] (setting [12]) it was 31 nM; in [4] (setting [12]), 14 nM; in assay [5] (setting [12]) it was 7 nM; in [6] (setting [12]), 155 nM. Besides, the IC50 was determined as 20 nM with melanoma cells (A2058) (setting [12]); 6 nM in assay [7] (setting [12]); 36 nM in [8] (setting [12]); 28 nM in assay [9] (setting [12]); 48 nM in [10] (setting [12]); 100 nM in assay [11] (setting [12]).

For the compound `CC[C@@]1(O)C(=O)OCc2c1cc1n(c2=O)Cc2c-1nc1ccc(SC)c(F)c1c2CN` [Compound 2au], the IC50 in assay [1] (setting [12]) was found to be 1 nM; in [2] (setting [12]) it was 1 nM; in assay [3] (setting [12]) it was 40 nM; in [4] (setting [12]) it was 2 nM; in assay [5] (setting [12]), 1 nM; in assay [6] (setting [12]), 7 nM. For the same compound, the IC50 in the assay with melanoma cells (A2058) (setting [12]) stood at 3 nM; in [7] (setting [12]) it was 1 nM; in [8] (setting [12]), 4 nM; in [9] (setting [12]) it was 5 nM; in assay [10] (setting [12]), 2 nM; in [11] (setting [12]) it was 6 nM.

`CC[C@@]1(O)C(=O)OCc2c1cc1n(c2=O)Cc2c-1nc1cc3c(cc1c2Cn1ccnc1)OCO3` [Compound 7ai]: the IC50 in assay [1] (setting [12]) turned out to be 52 nM; in [2] (setting [12]), 4 nM; in [3] (setting [12]), 9 nM; in [4] (setting [12]), 3 nM; in [5] (setting [12]), 3 nM; in assay [6] (setting [12]), 81 nM. Further, the IC50 in the assay with melanoma cells (A2058) (setting [12]) was found to be 3 nM; in assay [7] (setting [12]), 1 nM; in assay [8] (setting [12]) it was 12 nM; in assay [9] (setting [12]), 6 nM; in [10] (setting [12]) it was 8 nM; in [11] (setting [12]), 17 nM.

Regarding `CCc1c(C)c(F)cc2nc3c(c(CN)c12)Cn1c-3cc2c(c1=O)COC(=O)[C@]2(O)CC` [Compound 10, (S)-11-(aminomethyl)-4,10-diethyl-8-fluoro-4-hydroxy-9-methyl-1,12-dihydro-14H-pyrano[3′,4′:6,7]indolizino[1,2-b]quinoline-3,14(4H)-dione], the IC50 in assay [1] amounted to 59 nM; in [2] it was 51 nM; in assay [3], 149 nM; in assay [4], 15 nM; in assay [5] it was 15 nM; in [6] it was 95 nM. Besides, the IC50 in the assay on melanoma cells (A2058) worked out at 33 nM; in assay [7] it was 7 nM; in assay [8] it was 54 nM; in assay [9], 57 nM; in assay [10] (96 h) it was 33 nM; in assay [11], 64 nM.

In the case of `CC[C@@]1(O)C(=O)OCc2c1cc1n(c2=O)Cc2c-1nc1cc3c(cc1c2CN)CC=C3` [Compound 5], the IC50 in assay [1] (setting [12]) came to 218 nM; in assay [2] (setting [12]), 9 nM; in [3], 258 nM; in assay [4] (setting [12]), 7 nM; in assay [5] (setting [12]), 4 nM; in assay [6] it was 129 nM. In addition, the IC50 in the assay with melanoma cells (A2058) (setting [12]) is 7 nM; in [7] (setting [12]), 4 nM; in [8] (setting [12]), 16 nM; in assay [9] (setting [12]), 10 nM; in assay [10] (setting [12]), over 1000 nM; in assay [11] (setting [12]) it was 40 nM.
